PMC6911004, “Fragment-based screening identifies molecules targeting the substrate-binding ankyrin repeat domains of tankyrase” (Scientific Reports, 2019)

Key:
Type in all cases: binding
TNKS2 ARC1 (20–178) [1] = biological target: T1, TNKS2 ARC1 (20–178) (Homo sapiens, UniProt Q9H2K2); experiment: T2 relaxation-edited ligand-observed NMR assay
T1 construct: TNKS2 ARC1 (20–178); His6-GST; made in house; host or cells: E. coli
From the text: The anticipated functional redundancy between ARCs and the existence of two tankyrase paralogues will require efficient substrate binding antagonists to ideally bind all TBM-binding ARCs of both TNKS and TNKS2. […] We tested binding of compound 9 to all TNKS and TNKS2 ARCs using the relaxation-edited NMR assay (Fig. 4E, Table 3). Compound 9 bound all ARCs, with the exception of TNKS2 ARC1. Given the invariant residue infrastructure of the peptide-binding pocket in ARC1 of TNKS and TNKS2, this observation is difficult to reconcile with available structural information. […]
(§1) Fragments were dispensed in duplicate into a 384-well plate (250 nL, 100 mM stock in DMSO). […] Solutions were transferred to 1.7 mm NMR tubes using a Gilson liquid handling system. ^1H NMR spectra were recorded, with the DMSO and water signals dampened. […] The average integral for all peaks between 6.0–10.0 ppm was calculated, and the difference between compound-only and compound-plus-protein samples was compared. […] For competitive experiments, 3BP2 16-mer peptide (100 μM) was added, and the spectra were recorded and processed as above. The variability in signal reduction in the relaxation-edited experiment was previously determined as approximately ± 10% (Liu et al., unpublished observations).

TNKS ARC1 (178–336) = biological target: T2, TNKS ARC1 (178–336) (Homo sapiens, UniProt O95271); experiment: WaterLOGSY NMR assay
T2 construct: TNKS ARC1 (178–336); His6-GST; made in house; host or cells: E. coli
Description: (§2) Fragments were dispensed in duplicate into a 384-well plate (250 nL, 100 mM stock in DMSO). Wells were backfilled with DMSO (2.25 μL). Tankyrase ARC protein (47.5 μL in 25 mM HEPES-NaOH pH7.5, 100 mM NaCl, 2 mM TCEP, 10% D2O; 20 μM final protein concentration in the assay) was added to the samples containing protein; buffer only (47.5 μL) was added to the compound-only samples. Solutions were transferred to 1.7 mm NMR tubes using a Gilson liquid handling system. ^1H NMR spectra were recorded, with the DMSO signal dampened. The bulk water signal at 4.7 ppm was selectively inverted. Data were processed using Bruker Topspin 3.14[66].

TNKS2 ARC2–3 (173–487) = biological target: T3, TNKS2 ARC2–3 (173–487) (Homo sapiens, UniProt Q9H2K2); experiment: WaterLOGSY NMR assay
T3 construct: TNKS2 ARC2–3 (173–487); His6-GST; made in house; host or cells: E. coli
Description: as §2

TNKS ARC5 (799–958) = biological target: T4, TNKS ARC5 (799–958) (Homo sapiens, UniProt O95271); experiment: WaterLOGSY NMR assay
T4 construct: TNKS ARC5 (799–958); His6-GST; made in house; host or cells: E. coli
Description: as §2

TNKS ARC4 (646–807) = biological target: T5, TNKS ARC4 (646–807) (Homo sapiens, UniProt O95271); experiment: WaterLOGSY NMR assay
T5 construct: TNKS ARC4 (646–807); His6-GST; made in house; host or cells: E. coli
Description: as §2

TNKS2 ARC1 (20–178) [2] = biological target: T1, TNKS2 ARC1 (20–178); experiment: WaterLOGSY NMR assay
Description: as §2

TNKS ARC2–3 (331–645) = biological target: T6, TNKS ARC2–3 (331–645) (Homo sapiens, UniProt O95271); experiment: WaterLOGSY NMR assay
T6 construct: TNKS ARC2–3 (331–645); His6-GST; made in house; host or cells: E. coli
Description: as §2

[3] = biological target: T7, TNKS2 ARC4 central patch (L560W) (Homo sapiens, UniProt Q9H2K2, L560W); experiment: WaterLOGSY NMR with mutant ARC
T7 construct: TNKS2 ARC4 (488–649); His6-GST; made in house; host or cells: E. coli BL21-CodonPlus (DE3)-RIL
From the text: (§3) We used three previously designed TNKS2 ARC4 mutant variants[4] to explore potential binding determinants for fragment 9. A WFE591/593/598AAA triple-mutation abrogates three key residues in the “arginine cradle”; YY536/569AA truncates two tyrosine residues that form the “glycine sandwich”, and L560W introduces a bulky residue into the “central patch” that sterically clashes with the TBM peptide (see Fig. 5A,B for locations of the mutated residues). We tested binding of compound 9 to the wild-type and mutant ARCs by ligand-observed NMR, using the relaxation-edited assay (Fig. 5C, Table 4). […] Binding was impaired but not abolished for the “central patch” mutant variant (L560W).
as §2

[4] = biological target: T8, TNKS2 ARC4 arginine cradle (WFE591/593/598AAA) (Homo sapiens, UniProt Q9H2K2, E598A/F593A/W591A); experiment: WaterLOGSY NMR with mutant ARC
T8 construct: The cell was filled with TNKS2 ARC4 (488–649); His6-GST; made in house; host or cells: E. coli
From the text: as §3, §2

[5] = biological target: T9, TNKS2 ARC4 aromatic glycine sandwich (YY536/569AA) (Homo sapiens, UniProt Q9H2K2, Y536A/Y569A); experiment: WaterLOGSY NMR with mutant ARC
T9 construct: TNKS2 ARC4 (488–649); His6-GST; made in house; host or cells: E. coli BL21-CodonPlus (DE3)-RIL
From the text: as §3, §2

[6] = biological target: T9, TNKS2 ARC4 aromatic glycine sandwich (YY536/569AA); experiment: T2 relaxation-edited NMR with mutant ARC
From the text: as §3, §1

T4 sequence (O95271 799-958): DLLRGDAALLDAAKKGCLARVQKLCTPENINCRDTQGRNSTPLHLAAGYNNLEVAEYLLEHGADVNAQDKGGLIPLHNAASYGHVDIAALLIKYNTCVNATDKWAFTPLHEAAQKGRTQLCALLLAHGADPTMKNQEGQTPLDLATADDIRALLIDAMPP
T5 sequence (O95271 646-807): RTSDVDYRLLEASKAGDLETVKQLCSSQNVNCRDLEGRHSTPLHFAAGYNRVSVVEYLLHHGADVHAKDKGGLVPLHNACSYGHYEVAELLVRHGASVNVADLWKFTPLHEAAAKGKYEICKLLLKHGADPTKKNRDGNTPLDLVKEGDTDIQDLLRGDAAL
T6 sequence (O95271 331-645): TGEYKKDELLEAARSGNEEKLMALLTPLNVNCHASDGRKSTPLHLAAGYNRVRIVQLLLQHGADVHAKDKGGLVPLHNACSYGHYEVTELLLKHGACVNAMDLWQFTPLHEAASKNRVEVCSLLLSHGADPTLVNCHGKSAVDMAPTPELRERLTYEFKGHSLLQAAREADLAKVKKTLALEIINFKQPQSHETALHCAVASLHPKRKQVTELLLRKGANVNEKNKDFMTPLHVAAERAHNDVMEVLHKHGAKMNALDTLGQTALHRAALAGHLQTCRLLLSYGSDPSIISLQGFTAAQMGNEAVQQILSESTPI

T2 relaxation-edited: reduction of signal integrals (TNKS2 ARC1 (20–178) [1]): 0%
T2 relaxation-edited: reduction of signal integrals [6]: 0%
Compound: O=C(NCc1ccco1)c1ccc2nccnc2c1 [compound 9]
waterLOGSY (TNKS ARC1 (178–336)): negative NOE signal
waterLOGSY (TNKS2 ARC2–3 (173–487)): negative NOE signal
waterLOGSY (TNKS ARC5 (799–958)): negative NOE signal
waterLOGSY (TNKS ARC4 (646–807)): negative NOE signal
waterLOGSY (TNKS2 ARC1 (20–178) [2]): no NOE
waterLOGSY (TNKS ARC2–3 (331–645)): negative NOE signal
waterLOGSY [3]: positive NOE
waterLOGSY [4]: negative NOE
waterLOGSY [5]: positive NOE
